Counter-ions that a name gives are not always drawn.
Key:
[1] = test system: Zika virus; test: Focus Forming Assay, Vero cells drugged at T-1, T0, T1, T8, T12 relative to addition of virus; assay type: cell-based; settings: for change of EC50 with time of compound addition: addition T-1 to T12 relative to virus; for effect on Zika virus replication (focus count): remaining virus after 39 hours
Procedure: FIGS. 3-14. Focus Forming Assay. Data represent Vero cells drugged with SERM compounds an hour before addition of virus (T-1), upon addition of virus (T0), one hour after addition of virus (T1), eight hours after addition of virus (T8), and twelve hours after addition of virus. Each compound was screened as triplicate measurements and performed in duplicate. The data is shown as focus count (normalized to the control wells) which represents the amount of remaining virus after 39 hours as a function of log concentration.

[2] = test system: calmodulin-activated PDE; settings: cited from earlier work
[3] = test system: HCV; settings: cited from earlier work
[4] = after two years, only tamoxifen; cited from earlier work
[5] = test system: ZIKV strain PRVABC59; test: focus reduction test of ZIKV on Vero cells; settings: focus reduction test (FIG. 1B)
Excerpt: Average+/−StdDev from three independent experiments done in duplicate.

[6] = average 4-year follow-up; difference not statistically significant; cited from earlier work
[7] = biological target: T1, ERa (Homo sapiens, UniProt P03372); settings: cited from earlier work
T1 sequence (P03372 1-595): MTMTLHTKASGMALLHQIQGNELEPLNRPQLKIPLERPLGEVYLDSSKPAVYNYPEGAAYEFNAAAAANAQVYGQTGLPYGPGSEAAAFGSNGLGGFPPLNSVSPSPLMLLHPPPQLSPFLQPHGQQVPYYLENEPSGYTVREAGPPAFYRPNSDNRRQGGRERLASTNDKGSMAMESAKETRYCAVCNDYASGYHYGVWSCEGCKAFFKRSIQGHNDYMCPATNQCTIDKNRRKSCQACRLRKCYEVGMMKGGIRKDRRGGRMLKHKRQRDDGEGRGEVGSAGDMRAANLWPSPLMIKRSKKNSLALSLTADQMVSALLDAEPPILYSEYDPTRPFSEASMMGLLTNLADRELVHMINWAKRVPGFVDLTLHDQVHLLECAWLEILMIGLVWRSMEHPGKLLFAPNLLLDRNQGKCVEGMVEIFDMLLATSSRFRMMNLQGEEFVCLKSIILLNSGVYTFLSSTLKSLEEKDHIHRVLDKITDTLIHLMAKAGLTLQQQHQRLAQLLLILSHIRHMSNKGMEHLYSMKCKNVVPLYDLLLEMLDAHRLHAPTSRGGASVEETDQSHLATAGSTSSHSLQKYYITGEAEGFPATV

[8] = test system: ERa-mediated gene transcription; settings: cited from earlier work
[9] = test system: Ca2+-mediated cytotoxicity and apoptosis; settings: cited from earlier work

## Oc1ccc([C@H]2COc3cc(O)ccc3C2)cc1 [(S)-Equol, (S)-equol]
[1]
  change of EC50 with time of compound addition: EC50 increases from T8 to T12
  effect on Zika virus replication (focus count): diminishes viral replication

## Cl.NCCCCCCCCCCNS(=O)(=O)c1cccc2c(Cl)cccc12 [A-7]
[1]
  change of EC50 with time of compound addition: EC50 increases from T1 to T8
  effect on Zika virus replication (focus count): prevents viral replication
[1]; listed as A-7 Hydrochloride
  effect on Zika virus replication (focus count): impedes viral replication
[2]
  IC50: 3000 nM

## O=c1c(-c2ccc(O)cc2)coc2cc(O)ccc12 [Daidzein]
[1]
  effect on Zika virus replication (focus count): no effect

## O=c1c(-c2ccc(O)cc2)coc2cc(O)cc(O)c12 [Genistein]
[1]
  effect on Zika virus replication (focus count): no effect

## C[C@]12CC[C@@H]3c4ccc(O)cc4C[C@@H](CCCCCCCCC[S+]([O-])CCCC(F)(F)C(F)(F)F)[C@H]3[C@@H]1CC[C@@H]2O (stereo partly drawn) [ICI182780]
[3]
  effect on HCV genome replication: able to inhibit HCV genome replication
  toxicity in the HCV replication study: without any apparent toxicity

## CCCCCCCCCCCCCC(=O)O[C@@H]1[C@@H](C)[C@@]2(O)[C@@H](C=C(CO)C[C@]3(O)C(=O)C(C)=C[C@@H]23)[C@@H]2C(C)(C)[C@]12OC(C)=O [PMA, phorbol-12-myristate-13-acetate]
[1]
  change of EC50 with time of compound addition: EC50 increases from T8 to T12
  effect on Zika virus replication (focus count): diminishes viral replication

## CC/C(=C(\c1ccccc1)c1ccc(OCCN(C)C)cc1)c1ccccc1 [TAM, Tamoxifen]
[4]
  women with a recurrence: 7.5%
[3]
  effect on HCV genome replication: able to inhibit HCV genome replication
  toxicity in the HCV replication study: without any apparent toxicity
[5]
  antiviral activity against ZIKV grown in Vero cells: antiviral activity

## CC/C(=C(\c1ccccc1)c1ccc(OCCN(C)C)cc1)c1ccccc1 [Tamoxifen citrate]
[1]
  change of EC50 with time of compound addition: EC50 increases from T1 to T8
  effect on Zika virus replication (focus count): prevents viral replication

## COc1cc2c(cc1OC)CN(CCc1ccc(NC(=O)c3cc(OC)c(OC)cc3NC(=O)c3cnc4ccccc4c3)cc1)CC2 [Tariquidar]
[1]
  change of EC50 with time of compound addition: EC50 does not change substantially from T-1 to T12
  effect on Zika virus replication (focus count): prevents viral replication

## C[C@H]1CCCC(=O)CCCCCc2cc(O)cc(O)c2C(=O)O1 [Zearalanone]
[1]
  effect on Zika virus replication (focus count): no effect

## O=C(c1ccc(OCCN2CCCCC2)cc1)c1c(-c2ccc(O)cc2)sc2cc(O)ccc12 [raloxifene]
[6]
  fewer blood clots than in women taking tamoxifen: 29%
  fewer uterine cancers than in women taking tamoxifen: 36%

## Methylpiperidinopyrazole [MPP]
[7]
  selectivity for ERa over ERβ: 200 fold
[8]
  selectivity for blocking ERa-mediated gene transcription relative to that of ERβ: 1000 fold

## VAITVLVK [CALP-1]
[1]
  effect on Zika virus replication (focus count): increase viral growth during some of the assays
[9]
  IC50: 52 µM

From patent publication US20210353564A1, “TREATMENTS FOR ZIKA VIRUS INFECTION” (Saint Louis University, priority 2018, published 2021)
